According to ChEMBL document CHEMBL3228005, “Inhibition of rat passive cutaneous anaphylaxis by 3-(tetrazol-5-yl)quinolines” (1979):

How the values were obtained:
Format in all cases: functional
Rattus norvegicus [1] = assay: Inhibition of passive cutaneous anaphylaxis in po dosed Sprague-Dawley rat; details: read-out: MED
Rattus norvegicus [2] = assay: Inhibition of passive cutaneous anaphylaxis in ip dosed Sprague-Dawley rat; details: for minimal effective dose: read-out: MED
Rattus norvegicus [3] = assay: Ratio of disodium cromoglycate MED to compound MED for inhibition of passive cutaneous anaphylaxis in ip dosed Sprague-Dawley rat
Rattus norvegicus [4] = assay: Inhibition of passive cutaneous anaphylaxis in ip dosed Sprague-Dawley rat administered with ball-milled suspension; details: read-out: MED
Rattus norvegicus [5] = assay: Ratio of doxantrazole MED to compound MED for inhibition of passive cutaneous anaphylaxis in po dosed Sprague-Dawley rat
Rattus norvegicus [6] = assay: Inhibition of passive cutaneous anaphylaxis in po dosed Sprague-Dawley rat administered with ball-milled suspension; details: read-out: MED

Compound	minimal effective dose (Rattus norvegicus [1]) [mg/kg]	minimal effective dose (Rattus norvegicus [2]) [mg/kg]	further results
CCCCc1ccc2ncc(-c3nn[nH]n3)cc2c1	> 25	5	–
COc1ccc2ncc(C(=O)O)cc2c1	–	> 5	–
O=c1c(-c2nn[nH]n2)c[nH]c2c(Cl)cccc12	–	0.078	Ratio (Rattus norvegicus [3]): 33; minimal effective dose (Rattus norvegicus [4]): 0.156 mg/kg; Ratio (Rattus norvegicus [5]): 32
FC(F)(F)c1cccc2cc(-c3nn[nH]n3)cnc12	25	< 25	–
O=C(O)c1cnc2c(C(F)(F)F)cccc2c1	75	50	–
O=C(O)c1cnc2ccc(OC3CCCCC3)cc2c1	–	> 25	–
Fc1ccc2ncc(-c3nn[nH]n3)cc2c1	50	< 25	–
Cc1cc(F)c2[nH]cc(-c3nn[nH]n3)c(=O)c2c1.O	> 10	2.5	–
Cl.O=C(O)c1cnc2ccc(F)cc2c1	> 50	–	–
Cl.c1nc2ccc(C3CCCCC3)cc2cc1-c1nn[nH]n1	> 25	5	–
O=c1c(-c2nn[nH]n2)c[nH]c2c(F)cccc12	10	0.625	minimal effective dose (Rattus norvegicus [6]): 2.5 mg/kg
COc1cccc2cc(C(=O)O)cnc12	150	25	–
O=C(O)c1cnc2c3c(ccc2c1)CCCC3	50	25	–
CCOc1cccc2cc(C(=O)O)cnc12	> 50	> 25	–
Cc1ccc2cc(C(=O)O)cnc2c1C	50	25	–
O=C(O)c1cnc2c(Cl)cccc2c1O	> 100	–	–
CCc1ccc2c(=O)c(-c3nn[nH]n3)c[nH]c2c1.O	> 10	< 5	–
COc1ccc2ncc(C(=O)O)c(O)c2c1	> 100	> 50	–
O=c1c(-c2nn[nH]n2)c[nH]c2c(C(F)(F)F)cccc12	> 25	0.156	–
O.O=c1c(-c2nn[nH]n2)c[nH]c2ccccc12	> 20	1.25	–
O=c1c(-c2nn[nH]n2)c[nH]c2c(Cl)c(Cl)ccc12	> 10	> 0.156	–
COc1cccc2c(O)c(C(=O)O)cnc12	> 100	10	–
CC(C)c1cccc2c(=O)c(-c3nn[nH]n3)c[nH]c12	10	1.25	–
Cc1ccc2cc(-c3nn[nH]n3)cnc2c1C	25	1	–

Compound	minimal effective dose (Rattus norvegicus [1]) [mg/kg]	minimal effective dose (Rattus norvegicus [2]) [mg/kg]	further results
Cc1cccc2cc(C(=O)O)cnc12	> 25	> 50	–
O.O=c1c(-c2nn[nH]n2)c[nH]c2c(Cl)cc(Cl)cc12	> 10	> 0.156	–
CS(=O)(=O)c1cccc2c(=O)c(-c3nn[nH]n3)c[nH]c12	> 25	10	–
O=C(O)c1cnc2c(F)cccc2c1O	> 100	–	–
O=C(O)c1cnc2cc(C(F)(F)F)ccc2c1	> 25	> 25	–
COc1ccc2cc(-c3nn[nH]n3)cnc2c1.Cl	> 25	5	–
O=c1c(-c2nn[nH]n2)c[nH]c2c(F)ccc(F)c12	10	> 0.156	–
COc1ccc2c(O)c(C(=O)O)cnc2c1	> 100	> 50	–
O=C(O)c1cnc2c(F)cc(F)cc2c1	–	25	–
COc1ccc2c(=O)c(-c3nn[nH]n3)c[nH]c2c1	–	10	–
O=c1c(-c2nn[nH]n2)c[nH]c2ccc(Cl)cc12	> 25	> 10	–
Cc1cccc2cc(-c3nn[nH]n3)cnc12	25	< 25	–
COc1cccc2cc(-c3nn[nH]n3)cnc12	> 25	2.5	–
O.O=c1c(-c2nn[nH]n2)c[nH]c2c3c(ccc12)CCCC3	> 25	–	–
O.O=C(O)c1cnc2c(F)cccc2c1	150	> 25	–
O=C(O)c1cnc2c(Cl)cccc2c1	150	25	–
COc1ccc(OC)c2ncc(C(=O)O)cc12	> 50	> 25	–
Fc1cccc2cc(-c3nn[nH]n3)cnc12	–	> 10	–
O.O=c1c(-c2nn[nH]n2)c[nH]c2ccc(F)cc12	> 20	1.25	–
Cc1ccc2[nH]cc(-c3nn[nH]n3)c(=O)c2c1.O	> 25	1.25	–
COc1ccc(OC)c2ncc(-c3nn[nH]n3)cc12	> 50	5	–
O=c1c(-c2nn[nH]n2)c[nH]c2c(Cl)ccc(Cl)c12	0.312	> 0.156	–
CC(C)Oc1cccc2c(=O)c(-c3nn[nH]n3)c[nH]c12	1.25	0.078	–
Cc1cccc2c(=O)c(-c3nn[nH]n3)c[nH]c12	> 10	> 5	–

Compound	minimal effective dose (Rattus norvegicus [1]) [mg/kg]	minimal effective dose (Rattus norvegicus [2]) [mg/kg]	further results
CCc1cccc2c(=O)c(-c3nn[nH]n3)c[nH]c12	> 25	0.312	–
O=C(O)c1cnc2ccc(C(F)(F)F)cc2c1	> 50	> 25	–
c1nc2c3c(ccc2cc1-c1nn[nH]n1)CCCC3	5	5	–
O=C([O-])c1cc(=O)c2c(OCC(O)COc3cccc4oc(C(=O)[O-])cc(=O)c34)cccc2o1.[Na+].[Na+] [CROMOLYN SODIUM]	–	–	ED50 (Rattus norvegicus [2]): 2.6 mg/kg
COc1ccc(OC)c2c(=O)c(-c3nn[nH]n3)c[nH]c12	> 10	1.25	–
CCc1ccc2[nH]cc(-c3nn[nH]n3)c(=O)c2c1.O	0.625	< 5	minimal effective dose (Rattus norvegicus [6]): 0.156 mg/kg
Fc1cc(F)c2ncc(-c3nn[nH]n3)cc2c1	> 50	10	–
COc1ccc2cc(C(=O)O)cnc2c1.Cl	–	> 25	–
COc1cccc2c(=O)c(-c3nn[nH]n3)c[nH]c12.O	0.312	0.15	–
FC(F)(F)c1ccc2cc(-c3nn[nH]n3)cnc2c1	25	< 10	–
c1ccc2ncc(-c3nn[nH]n3)cc2c1	25	10	–
CCc1cccc2cc(C(=O)O)cnc12	75	> 50	–
CSc1cccc2c(=O)c(-c3nn[nH]n3)c[nH]c12	25	10	–
O=C(O)c1cnc2c(ccc3ccccc32)c1	50	25	–
O=C(O)c1cnc2ccc(C3CCCCC3)cc2c1	–	> 25	–
c1ccc2c(c1)ccc1cc(-c3nn[nH]n3)cnc12	10	5	–
O=C(O)c1cnc2ccccc2c1	150	50	–
O=C1c2ccccc2S(=O)(=O)c2cc(-c3nn[nH]n3)ccc21 [DOXANTRAZOLE]	5	–	–
O=c1c(-c2nn[nH]n2)c[nH]c2c(Br)cccc12	> 10	> 5	–
Cc1cc([N+](=O)[O-])c2cc(-c3nn[nH]n3)cnc2c1C	25	2.5	–
COc1ccc2ncc(-c3nn[nH]n3)cc2c1.O	> 25	10	–
Cl.c1cc2ncc(-c3nn[nH]n3)cc2cc1OC1CCCCC1	10	5	–
CCc1cccc2cc(-c3nn[nH]n3)cnc12	5	2.5	–
